Source: US8394825B2, “Compound” (Sterix Limited, priority 2007, dated 2013)

Compound | melting point [°C]
CCOC1CN(Cc2ccc(OC)cc2)Cc2cc(OC)c(O)cc21 (centres unmarked) [F36, 4-Ethoxy-7-methoxy-2-(4-methoxybenzyl)-1,2,3,4-tetrahydroisoquinolin-6-ol] | 154 to 157
CCOC1CN(Cc2cc(OC)c(OC)c(OC)c2)Cc2cc(OC)c(O)cc21 (centres unmarked) [F37, 4-Ethoxy-7-methoxy-2-(3,4,5-trimethoxybenzyl)-1,2,3,4-tetrahydroisoquinolin-6-ol] | 94 to 96
COc1cc2c(cc1OCc1ccccc1)CCN(Cc1cccc([N+](=O)[O-])c1)C2 [compound 10, 6-Benzyloxy-7-methoxy-2-(3-nitrobenzyl)-1,2,3,4-tetrahydroisoquinoline] | 109 to 110
COc1cc2c(cc1OCc1ccccc1)CCN(Cc1cccnc1)C2 [compound 11, 6-Benzyloxy-7-methoxy-2-(pyridin-3-ylmethyl)-1,2,3,4-tetrahydroisoquinoline] | 78 to 79
COc1cc2c(cc1OCc1ccccc1)CCN(Cc1ccccn1)C2 [compound 12, 6-Benzyloxy-7-methoxy-2-(pyridin-2-ylmethyl)-1,2,3,4-tetrahydroisoquinoline] | 73 to 74
COc1cc2c(cc1OCc1ccccc1)CCN(Cc1ccncc1)C2 [compound 13, 6-Benzyloxy-7-methoxy-2-(pyridin-4-ylmethyl)-1,2,3,4-tetrahydroisoquinoline] | 125 to 126
COc1ccc(CCN2CCc3cc(OCc4ccccc4)c(OC)cc3C2)cc1 [compound 14, 6-Benzyloxy-7-methoxy-2-(4-methoxyphenethyl)-1,2,3,4-tetrahydroisoquinoline] | 88 to 89
COc1ccc(C(=O)CN2CCc3cc(OCc4ccccc4)c(OC)cc3C2)cc1OC [compound 15, 6-Benzyloxy-2-(2-(3,4-dimethoxyphenyl)-2-oxoethyl)-7-methoxy-1,2,3,4-tetrahydroisoquinoline] | 126 to 127
COc1ccc(CN2CCc3cc(OCc4ccccc4)c(OC)cc3C2)cc1OC [compound 18, 6-Benzyloxy-7-methoxy-2-(3,4-dimethoxybenzyl)-1,2,3,4-tetrahydroisoquinoline] | 98 to 99
COc1cc2c(cc1OCc1ccccc1)CCN(Cc1cccc(O)c1)C2 [compound 30, 6-Benzyloxy-2-(3-hydroxybenzyl)-7-methoxy-1,2,3,4-tetrahydroisoquinoline] | 78 to 79
COc1cc2c(cc1OCc1ccccc1)CCN(Cc1cccc(NC(C)=O)c1)C2 [compound 35, 2-(3-Acetamidobenzyl)-6-(benzyloxy)-7-methoxy-1,2,3,4-tetrahydroisoquinoline] | 63 to 66
COc1cc2c(cc1OCc1ccccc1)CCN(Cc1cccc(NS(C)(=O)=O)c1)C2 [compound 36, 6-(Benzyloxy)-2-(3-methanesulfonylaminobenzyl)-7-methoxy-1,2,3,4-tetrahydroisoquinoline] | 132 to 133
COc1cccc(CN2CCc3cc(O)ccc3C2)c1 [compound 37, 6-Hydroxy-2-(3-methoxybenzyl)-1,2,3,4-tetrahydroisoquinoline] | 223 to 224
COc1ccc(CCN2CCc3cc(O)c(OC)cc3C2)cc1 [compound 46, 6-Hydroxy-7-methoxy-2-(4-methoxyphenethyl)-1,2,3,4-tetrahydroisoquinoline] | 170 to 171
COc1cc2c(cc1O)CCN(Cc1cccnc1)C2 [compound 47, 6-Hydroxy-7-methoxy-2-(pyridin-3-ylmethyl)-1,2,3,4-tetrahydroisoquinoline] | 165 to 166
COc1cc2c(cc1O)CCN(Cc1ccccn1)C2 [compound 48, 6-Hydroxy-7-methoxy-2-(pyridin-2-ylmethyl)-1,2,3,4-tetrahydroisoquinoline] | 137 to 138
COc1cc2c(cc1O)CCN(Cc1cccc(OC(C)=O)c1)C2 [compound 51, 6-Hydroxy-7-methoxy-2-(3-acetoxybenzyl)-1,2,3,4-tetrahydroisoquinoline] | 120 to 122
COc1cc2c(cc1O)CCN(Cc1cccc(NS(C)(=O)=O)c1)C2 [compound 52, 6-Hydroxy-7-methoxy-2-(3-methanesulfonylaminobenzyl)-1,2,3,4-tetrahydroisoquinoline] | 99 to 101
COc1cc2c(cc1O)CCN(CC(=O)c1ccc(OC)c(OC)c1)C2 [compound 53, 2-(2-(3,4-Dimethoxyphenyl)-2-oxoethyl)-6-hydroxy-7-methoxy-1,2,3,4-tetrahydroisoquinoline] | 149 to 150
COc1cc2c(cc1O)CCN(Cc1cccc(C(C)=O)c1)C2 [compound 62, 6-Hydroxy-7-methoxy-2-(3-acetylbenzyl)-1,2,3,4-tetrahydroisoquinoline] | 132 to 134
COc1cc2c(cc1OS(N)(=O)=O)CCN(Cc1cccc(NS(C)(=O)=O)c1)C2 [compound 88, 7-Methoxy-2-(3-(methylsulfonamido)benzyl)-1,2,3,4-tetrahydroisoquinolin-6-yl sulfamate] | 151 to 152

Compound | melting point [°C]
COc1cc2c(cc1OCc1ccccc1)CCN(C(=O)c1cc(OC)c(OC)c(OC)c1)C2 [compound 111, 6-Benzyloxy-7-methoxy-2-(3,4,5-trimethoxybenzoyl)-1,2,3,4-tetrahydroisoquinoline] | 63 to 64
COc1cccc(C(=O)N2CCc3cc(OCc4ccccc4)c(OC)cc3C2=O)c1 [compound 131, 6-Benzyloxy-7-methoxy-2-(3-methoxybenzoyl)-3,4-dihydro-2H-isoquinoline-1-one] | 141 to 143
COc1cc(OC)cc(C(=O)N2CCc3cc(OCc4ccccc4)ccc3C2=O)c1 [compound 132, 6-Benzyloxy-2-(3,5-dimethoxybenzoyl)-3,4-dihydro-2H-isoquinoline-1-one] | 158 to 159
COc1cc(OC)cc(C(=O)N2CCc3cc(O)ccc3C2=O)c1 [compound 137, 2-(3,5-Dimethoxybenzoyl)-6-hydroxy-3,4-dihydro-2H-isoquinoline-1-one] | 178 to 179
COc1cc2c(cc1O)CC(C)N(Cc1cc(OC)c(OC)c(OC)c1)C2 (centres unmarked) [compound 219, 2-(3,4,5-Trimethoxybenzyl)-1,2,3,4-tetrahydro-7-methoxy-3-methylisoquinolin-6-ol] | 127 to 132
COc1cc2c(cc1O)CC(C)(C)N(Cc1cc(OC)c(OC)c(OC)c1)C2 [compound 229, 7-Methoxy-3,3-dimethyl-2-(3,4,5-trimethoxy-benzyl)-1,2,3,4-tetrahydro-isoquinolin-6-ol] | 143 to 147
COc1cc(OC)cc(C(=O)N2Cc3cc(OC)c(O)cc3CC2(C)C)c1 [compound 235, (3,4-Dihydro-6-hydroxy-7-methoxy-3,3-dimethylisoquinolin-2(1H)-yl)(3,5-dimethoxyphenyl)methanone] | 163 to 166
COc1cc2c(cc1OCc1ccccc1)CC(C)(C)N(C(=O)c1cc(OC)c(OC)c(OC)c1)C2C (centres unmarked) [compound 245, (6-(Benzyloxy)-3,4-dihydro-7-methoxy-1,3,3-trimethylisoquinolin-2(1H)-yl)-(3,4,5-trimethoxyphenyl)methanone] | 175 to 177
COc1cc2c(cc1O)CC(C)(C)N(C(=O)c1cc(OC)c(OC)c(OC)c1)C2C (centres unmarked) [compound 246, (3,4-Dihydro-6-hydroxy-7-methoxy-1,3,3-trimethylisoquinolin-2(1H)-yl)(3,4,5-trimethoxyphenyl)methanone] | 198 to 200
COc1cc2c(cc1OS(N)(=O)=O)CC(C)(C)N(C(=O)c1cc(OC)c(OC)c(OC)c1)C2C (centres unmarked) [compound 247, Sulfamic acid 7-methoxy-1,3,3-trimethyl-2-(3,4,5-trimethoxy-benzoyl)-1,2,3,4-tetrahydro-isoquinolin-6-yl ester] | 170 to 173
COc1cccc(CN2CCc3cc(O)c(OC)cc3C2C)c1 (centres unmarked) [compound 253, 2-(3-Methoxybenzyl)-1,2,3,4-tetrahydro-7-methoxy-1-methylisoquinolin-6-ol] | 97 to 99
COc1cc2c(cc1OCc1ccccc1)CCC(=O)N2Cc1cc(OC)c(OC)c(OC)c1 [compound 289, 6-(Benzyloxy)-7-methoxy-1-(3,4,5-trimethoxybenzyl)-3,4-dihydro-1H-quinolin-2-one] | 129 to 130
COc1ccc(CN2C(=O)CCc3cc(O)c(OC)cc32)cc1 [compound 292, 6-Hydroxy-7-methoxy-1-(4-methoxybenzyl)-3,4-dihydro-1H-quinolin-2-one] | 168 to 169
COc1cc2c(cc1O)CCC(=O)N2Cc1cc(OC)c(OC)c(OC)c1 [compound 293, 6-Hydroxy-7-methoxy-1-(3,4,5-trimethoxybenzyl)-3,4-dihydro-1H-quinolin-2-one] | 157 to 158
COc1ccccc1CN1CCCc2cc(OCc3ccccc3)c(OC)cc2C1 [compound 302, 7-Benzyloxy-8-methoxy-2-(2-methoxybenzyl)-2,3,4,5-tetrahydro-1H-benzo[c]azepine] | 105 to 106
COc1cccc(CC2CCCc3cc(OCc4ccccc4)c(OC)cc3N2)c1 (centres unmarked) [compound 303, 7-Benzyloxy-8-methoxy-2-(3-methoxybenzyl)-2,3,4,5-tetrahydro-1H-benzoazepine] | 92 to 93
COc1ccc(CN2CCCc3cc(OCc4ccccc4)c(OC)cc3C2)cc1 [compound 304, 7-Benzyloxy-8-methoxy-2-(4-methoxybenzyl)-2,3,4,5-tetrahydro-1H-benzo[c]azepine] | 87 to 88
COc1cc2c(cc1OCc1ccccc1)CCCN(Cc1cc(OC)c(OC)c(OC)c1)C2 [compound 305, 7-Benzyloxy-8-methoxy-2-(3,4,5-trimethoxybenzyl)-2,3,4,5-tetrahydro-1H-benzo[c]azepine] | 44 to 46
COc1cc2c(cc1O)CCCN(Cc1ccccc1OC)C2 [compound 306, 7-Hydroxy-8-methoxy-2-(2-methoxybenzyl)-2,3,4,5-tetrahydro-1H-benzo[c]azepine] | 136 to 137
COc1cccc(CN2CCCc3cc(O)c(OC)cc3C2)c1 [compound 307, 7-Hydroxy-8-methoxy-2-(3-methoxybenzyl)-2,3,4,5-tetrahydro-1H-benzo[e]azepine] | 114 to 115
